Experimental data as given in US20030212014A1 (priority 2000, published 2003).

Legend:
[1] = tested on: human and bovine retinal pericytes; experiment: Palmitate-induced apoptosis in retinal pericytes (TUNEL staining); type: cell-based
Procedure: Apoptosis was induced by incubating the cells with a medium containing 0-0.5 mM palmitic acid for 3 days. Apoptotic cells were determined by conventional TUNEL staining. Ceramide and DAG levels were measured the by diacylgycerol kinase method using 32P-ATP.

rats = details: cited from earlier work

Question: For NC(=O)c1ncn([C@@H]2O[C@H](CO)[C@@H](O)[C@H]2O)c1N [AICAR, 5-aminoimidizole-4-carboxamide riboside], which “apoptotic cells (TUNEL)” value ([1]; 0.5 mM palmitate + 1 mM AICAR, 3 days) is on record?
Answer: Its value is 10±2%.

Question: And the decrease in apoptosis ([1]; 1 mM AICAR vs 0.5 mM palmitate alone)?
Answer: The decrease in apoptosis was 50%.

Question: What about the blood glucose levels (rats; 500 mg/kg/twice daily, control and diabetic rats (U.S. Pat. No. 5,658,889)) of the same compound?
Answer: Its blood glucose levels is “lowers”.

Question: What about the liver size (rats; 1000 mg/kg body weight daily for 28 days (Winder)) of the same compound?
Answer: The liver size was “hepatic enlargement”.

Question: What about the muscle glycogen (rats; 1000 mg/kg/day for 28 days (Winder et al.)) of the same compound?
Answer: Its muscle glycogen is “increased”.
